Assay results as given in patent US12503448B2, “Antibacterial and antiparasitic quinoxaline-2,3-diamine derivatives” (University College Cardiff Consultants Limited, priority 2019, dated 2025).
≈ marks a conversion by molar mass, not a printed value. Like-named read-outs stand apart in the source and are kept apart here.

Assays:
[1] = test system: S. mansoni schistosomula; assay: 72 hours schistosomula drug screen; format: cell-based, Schistosoma mansoni; conditions: for Selectivity Index Schistosomula: HepG2 CC50 over schistosomula EC50; for EC50: Schistosoma mansoni
How it was run: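 Newly transformed S. mansoni schistosomula were screened for 72 h in 384-well format. Phenotype and motility were scored, and a schistosomula average was derived.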

[2] = test system: S. mansoni adult worms; assay: Adult worm drug screen (WHO scoring, WormassayGP2); format: cell-based, Schistosoma mansoni; conditions: for Selectivity Index Adult: HepG2 CC50 over adult worm EC50; for EC50: Schistosoma mansoni, adult worms
How it was run: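 Adult worms perfused from MF-1 mice 7 weeks after infection with 180 cercariae. Motility after drug exposure scored on the WHO-TDR 0–4 microscopic scale (0 = no movement, 4 = normal), checked by image-based motion analysis. Deposited eggs counted.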

[3] = test system: E. coli ATCC 25922; assay: In vitro antibacterial activity; format: cell-based; conditions: Escherichia coli, ATCC25922
[4] = test system: MRSA ATCC 33591; assay: In vitro antibacterial activity; format: cell-based; conditions: Staphylococcus aureus
[5] = test system: S. epidermidis NTCT11077; assay: In vitro antibacterial activity; format: cell-based; conditions: Staphylococcus epidermidis
[6] = test system: B. cereus; assay: In vitro antibacterial activity; format: cell-based; conditions: Bacillus cereus
[7] = MTT assay on HepG2 cells; format: cell-based; conditions: human
Method: MTT Assay on HepG2 Cells Human Hepatocyte Carcinoma (HepG2) cells (85011430, Sigma Aldrich) were used to assess the overt toxicity of these anti-infective compounds. […] A negative control (1% v/v Triton X-100; X100, Sigma-Aldrich) was also included in each screen. After addition of compounds, each plate was then incubated for a further 20 hrs before application of MTT reagent (prepared as described in Nur-[…], Bari A, Ghabbour […], Hoffmann […] Nat Prod. 2017 Jun. 23; 80(6):1900-1908 for the assessment of compound cytotoxicity using the MTT assay. […] The plate was then further incubated for 4 hrs. After incubation, each plate was blotted dry under the laminar flow to remove the MTT treated culture media. A 100 μl DMSO: isopropanol (1:1) solution was then added to each well and the plate was then subsequently incubated for 10 minutes at 37° C. Following incubation, each plate was shaken again and then absorbance measured at 570 nm. The absorbance reading was corrected based on the average value of the wells used as blank (no cells). […] The data obtained in this manner is shown in Table 1 in the columns labelled “HepG2”. […] The selectivity indexes for schistosomula and adult worms are shown in the final two columns in Table 1.

[8] = Semi thermodynamic solubility; conditions: thermodynamic from solid
[9] = Metabolic stability in mouse liver microsomes; conditions: for microsomal CLint at 1 μM: liver microsomes; for half-life at 1 μM: microsomes
[10] = Plasma protein binding
[11] = schistosomula, 72 hour culture, read-out: EC50 Motility
[12] = schistosomula, 72 hour culture, read-out: EC50 Phenotype
[13] = average of phenotype and motility, read-out: EC50 Schistosomula average
[14] = E. coli ATCC 25922, read-out: MIC90
[15] = S. epidermidis NTCT11077, read-out: MIC90

Compound | Selectivity Index Schistosomula [1] | EC50 [1, 11] [nM] | EC50 [1, 12] [nM] | Selectivity Index Adult [2] | EC50 [2] [nM] | MIC90 [3] [µg/mL] | MIC90 [4] [µg/mL] | MIC90 ([5]; NTCT11077) [µg/mL] | MIC90 [6] [µg/mL] | EC50 [1, 13] [nM] | CC50 at 24 h [7] [nM] | MIC90 [3, 14] [µg/mL] | MIC90 [5, 15] [µg/mL] | MIC90 ([6]; B. cereus, read-out: MIC90) [µg/mL] | solubility thermodynamic [8] [µM] | microsomal CLint at 1 μM [9] [µL/min/mg] | half-life at 1 μM [9] [h] | fraction unbound [10]
O=[N+]([O-])c1ccc2nc(Nc3cccc(Cl)c3)c(Nc3cccc(Cl)c3)nc2c1 [Compound 5, N^2, N^3-bis(3-chlorophenyl)-6-nitroquinoxaline-2,3-diamine] | 5 | 1300 | 1220 | 568 | 12 | > 125 | 3.91 (≈ 9.17 µM) | < 62.5 | 125 (≈ 293 µM) |  |  |  |  |  |  |  |  | 
O=[N+]([O-])c1ccc2nc(Nc3ccc(F)c(C(F)(F)F)c3)c(Nc3ccc(F)c(C(F)(F)F)c3)nc2c1 [Compound 7, N^2, N^3-bis(4-fluoro-3-(trifluoromethyl)phenyl)-6-nitroquinoxaline-2,3-diamine] | 14 | 540 | 540 | 705 | 11 | 62.5 (≈ 118 µM) | < 3.91 | < 62.5 | 125 (≈ 236 µM) |  |  |  |  |  |  |  |  | 
O=[N+]([O-])c1ccc2nc(Nc3ccc(C(F)(F)F)cc3)c(Nc3ccc(C(F)(F)F)cc3)nc2c1 [Compound 11, 6-nitro-N^2, N^3-bis(4-(trifluoromethyl)phenyl)quinoxaline-2,3-diamine] | 33 | 530 | 420 | 2320 | 6.7 |  | < 3.91 |  |  | 480 | 15600 | > 125 | < 62.5 | < 62.5 | 32.8 (≈ 16.2 µg/mL) | 0.134 | 172 | 
COc1ccc(Nc2nc3ccc([N+](=O)[O-])cc3nc2Nc2ccc(OC)c(C(F)(F)F)c2)cc1C(F)(F)F [Compound 12, N^2, N^3-bis(4-methoxy-3-(tritluoromethyl)phenyl)-6-nitroquinoxaline-2,3-diamine] | 9 | 650 | 570 | 664 | 8.5 |  | 31.2 (≈ 56.5 µM) |  |  | 610 |  | > 125 | < 62.5 | < 62.5 | 4.09 (≈ 2.26 µg/mL) | 10.8 | 2.13 | 0.0134
